We go through 1 substance from patent US6461866B1, “In vitro photodynamic therapy using non laser light” (Photo Therapeutics Limited, priority 1992, dated 2002).

This experiment relates to Chinese hamster ovary (CHO) cells. Put plainly: In vitro PDT: survival of CHO cells incubated with HpD after irradiation. It counts as cell-based. On the procedure:
In vitro work carried out using Chinese hamster ovary (CHO) cells incubated with […] HpD for 24 hours. Irradiation was centered on 630±12 nm for three light sources, namely a high intensity continuous wave (CW) lamp (non-laser light source in accordance with the present invention using 300 W Xenon lamp), secondly a continuous wave 20 W argon ion pumped dye laser and pulsed 10 W copper vapour pumped dye laser, all with fibre delivery. Light doses ranged from 0 to 2.5 J/cm^2 with light fluences ranging from 20 to 200 mW/cm^2. A light only control was taken at 275 mW/cm^2 for energy doses of 0 to 100 J/cm^2. Following irradiation, cells were plated out, stained and counted for survival.
FIGS. 2a, 2b, 2c show photosensitiser (HpD) absorption spectrum, cell kill efficacy spectrum and overlapping HpD/lamp spectra. PBS refers to phosphate buffered saline; S.F. means survival fraction.
FIGS. 3a, 3b show cell survival curves obtained at 20 & 50 mW/cm^2 respectively with highest kill efficiency achieved by the argon ion laser, followed by the copper vapour laser. The lamp kill efficiency of the light source in accordance with the present invention, though similar to the lasers (approx 70%) would be increased by reducing its emission bandwidth from 30 nm.

For the substance haematoporhyrin derivative [HpD], the “lamp kill efficiency (cell survival curves)” value (CHO cells, 10 pg/ml HpD for 24 hours, 300 W Xenon lamp at 630±12 nm, 20 & 50 mW/cm^2, similar to the lasers) is recorded as “approx 70%”. Besides, the “photo-inactivation of cancerous CHO cells in vitro” value (HpD with impinging visible light at 630±12 nm from the non-laser light source) is listed as “proven photo-inactivation”.
